Where “and” joins values, the source holds several entries; their conditions need not be identical. Identical values can stand only once.
How the values were obtained:
Assay type in all cases: cell-based
[1] = tested on: C. albicans; experiment: C. albicans colony forming units (candidacidal activity); conditions: for C. albicans colony forming units (CFU): FIG. 1, incubation 2 hours at 37° C.; for relative potency in reducing C. albicans viability: FIG. 2, 10^−4M melanocortin peptides
Protocol: C. albicans (clinical isolate) was obtained from the collection of the Department of Microbiology, Ospedale Maggiore di Milano and maintained on Sabouraud's agar slants and periodically transferred to Sabouraud's agar plates and incubated for 48 hours at 28° C. To prepare a stationary growth phase yeast, a colony was taken from the agar plate and transferred into 30 ml Sabouraud-dextrose broth and incubated for 72 hours at 32° C. Cells were centrifuged and suspended in Hank's balanced salt solution (“HBSS”) to the desired concentration. Viability, determined by the exclusion of 0.01% methylene blue, remained >98%.
C. albicans (1×10^6/ml in HBSS) was incubated in the presence or absence or α-MSH(1-13) (SEQ ID NO: 3) or (11-13) (SEQ ID NO: 1) at concentrations in the range of 10^−15 M to 10^−6 M for 2 hours at 37° C. Cells were then washed in cold distilled water and diluted with HBSS to a concentration of 100 organisms/ml. One-ml aliquots were dispensed on blood agar plates and incubated for 48 hours at 37° C. Organism viability was estimated from the number of colonies formed.
In subsequent experiments using familiar procedures we compared activity of α-MSH(4-10) (SEQ ID NO: 10), (6-13) (SEQ ID NO: 2), (11-13) (SEQ ID NO: 1), ACTH(1-39) (SEQ ID NO: 9), (18-39) (SEQ ID NO: 11) and fluconazole, the latter an established antifungal agent. Melanocortin peptides and fluconazole were tested in concentrations of 10^−6 M to 10^−4 M. There were at least six replicates for each concentration of peptide. […]

[2] = tested on: C. albicans killing by human neutrophils; experiment: C. albicans killing by human neutrophils; conditions: 10^−12M to 10^−4M; 2 hours at 37° C.; p<0.01
Protocol: Venous blood (20 ml) from health volunteers was anticoagulated with heparin. Neutrophils were isolated using dextran sedimentation and Ficoll-Hypaque (Sigma Chemical Co., St. Louis, […]., USA) centrifugation. Erythrocytes were lysed via hypotonic shock. Neutrophils represented at least 97% of the cell suspension. Cell viability, estimated by trypan blue exclusion, was >98%. Neutrophils were suspended to a final concentration in HBSS.
C. albicans (1×10^6) were opsonized with human AB serum in a shaking water bath for 30 minutes at 37° C. […] After incubation, the culture tubes were placed on ice to stop growth and extracellular organisms were washed twice with centrifugation at 1000×g at 4° C. A 2.5% sodium desoxycholoate solution was added to obtain a suspension of 10^6 cells/ml. Two 1/100 serial dilutions in HBSS were made to obtain a final suspension of 100 cells/ml. Aliquots of 1 ml were dispensed on blood agar plates and incubated for 48 hours at 37° C. Colony forming units (CFUs) were counted at the end of the incubation period. Experiments were run in triplicate and repeated using blood from 5 different donors.

[3] = tested on: N9 clone of murine microglial cells; experiment: TNF-α, IL-6 and NO2− production by LPS+IFN-γ activated microglia; conditions: for concentration most effective at inhibiting cytokine formation: LPS+IFN-γ stimulated microglia, 1-100 μM tested
Protocol: See Delgado, R., Carlin, A., Alraghi, L., Demitri, M., Meda, L., Galimberti, D., Pierluigi, B., Lipton, J. M., Catania, A., Melanocortin Peptides Inhibit Production of Proinflammatory Cytokines and Nitric Oxide by Activated Microglia, 63 J. of Leukocyte Biol. 740 (1998). […] The N9 clone of murine microglial cells was obtained by immortalization of embryonic brain cultures with the 3RV retrovirus carrying an activated v-myconcogene. N9 cells were cultured in T-75-cm^2 culture flasks (Coming, Cambridge, Mass.) and maintained at 37° C. in a humidified incubator under 5% CO2 atmosphere in RPMI 1640 supplemented with 2 mM L-glutamine, 50 U/mL penicillin G, 50 μg/mL streptomycin sulfate (GIBCO-BBL, Paisley, UK), and 10% heat-inactivated fetal bovine serum (FBS, Hyclone Lab, Inc., Logan, Utah) until experiments were performed. Cells were used between the first and the tenth passage.
Sub-confluent microglial cells were washed twice with phosphate-buffered saline (PBS) and incubated with trypsin 0.025% and ethylenediaminetetraacetate (EDTA) 0.02% without calcium and magnesium for 3 min. at 37° C. to detach the cells from the culture flask. Cells were then resuspended in medium and incubated in 24-well tissue-culture plates at a concentration of 2×10^5 cells/mL for 16 h in a humidified incubator (37° C., 5% CO2). Growth medium was removed and cell monolayers were stimulated with 10 ng/mL lipopolysaccharide (LPS, from Escherichia coli 055:B5, Sigma Chemical Co., St. Louis, Mo.) plus 1 U/ml, murine IFN-γ (Sigma). […] Although production of TNF-α and NO was reduced to even much lower concentrations of the peptides, concentrations in the micromolar range had the most profound and consistent inhibitory effects. […] Cell-free supernatants were harvested after 24 h incubation and assayed for TNF-α, IL-6 and NO2. Viability of cells was assessed by trypan blue exclusion for each experimental condition: it was consistently >98%. Dexamethasone (Sigma) and N-monomethyl-L-arginine (L-NMMA: 100 μM, Cayman Chemical, Ann Arbor, Mich.) were used as positive controls for TNF-α and NO inhibition, respectively. Tests were repeated in at least three independent experiments and assays were performed in triplicate.
TNF-α bioactivity was measured in supernatants of cell cultures by standard cytotoxicity assay using L929 cells and recombinant human TNF-α (Sigma) as standard. The detection limit of the bioassay was 20 pg/mL. IL-6 was measured using a commercial murine enzyme-linked immunosorbent assay (ELISA: RPN 2714, Amersham, Little Chalfont, UK).
NO is rapidly oxidized to nitrite in culture medium, and nitrite (NO2^−) concentration is an indicator of NO production. Cell-free culture supernatants were mixed with equal amounts of Griess reagent (1% sulfanilamide, 0.1% naphtylethylenediamide in 2.5% phosphoric acid) in wells of 96-well ELISA plates. Samples were incubated at room temperature for 10 min and absorbance was measured at 540 nm with the use of a microplate reader. Nitrite […] concentrations were calculated using a sodium nitrite standard curve.
Effects of melanocortin peptides on cytokine and NO production were evaluated by repeated measures analysis of variance followed by Dunnet's test for specific comparisons. Probability values less than 0.05 were considered significant.

[4] = microglia stimulated with LPS+IFN-γ for 24 hr, micromolar concentrations

Substance | C. albicans colony forming units (CFU) [1] | relative potency in reducing C. albicans viability [1] | killing of C. albicans by human neutrophils [2] | concentration most effective at inhibiting cytokine formation [3] [µM] | reduction of production of IL-6 [3, 4] | reduction of production of NO2^− [3, 4] | reduction of production of TNF-α [3, 4]
Ac-Lys-Pro-Val-NH2 [α-MSH(11-13)] | greatly reduced | most effective | enhanced the killing | 1 | – | – | –
SYSMEHFRWGKPV [α-MSH(1-13)] | greatly reduced | most effective | enhanced the killing | 10 | 31% and 50% | 42% and 40% | 43% and 45%

From patent US7115574B2, “System and method for support legacy operating system booting in a legacy-free system” (priority 2001, dated 2006)
